In patent publication US6682931B2, “Recovering cryopreserved conifer embryogenic cultures” (MeadWestvaco Corporation, priority 1999, dated 2004):
Marks after values point to notes of the source that are not given here.

How the values were obtained:
[1] = tested on: loblolly pine cell lines (G-05, K-12, E-117 and O-72); test: Mean culture fresh weight of embryogenic cultures retrieved from cryopreservation on post-cryopreservation recovery medium (Example 3); assay type: cell-based; conditions: for % Increase of average culture fresh weight over control without ABA: all seven cell lines; for Mean Culture Fresh Weight, average of cell lines: average of all seven cell lines (loblolly and pitch×loblolly hybrid); for Mean Culture Fresh Weight: 28 days after retrieval
Excerpt: (§1) Five different pine embryogenic cell lines chosen at random from a long-term cryogenic storage bank were initiated, grown as liquid embryogenic suspension cultures, and cryopreserved via the methods described in Examples 1 and 2. The five cell lines included: one pitch×loblolly pine interspecies hybrid cell line (AA-24) and four loblolly pine cell lines (G-05, K-12, E-117 and O-72). Also, two additional pitch×loblolly pine F1 hybrid cell lines (Q-01 and Q-39) were initiated, grown as liquid embryogenic suspension cultures, and cryopreserved via the methods described in Examples 1 and 2 except that the initiation and maintenance media contained 10.0 mg/l of ABA (as taught in U.S. Pat. No. 5,856,191). The seven cell lines were retrieved from cryogenic storage, thawed, and transferred, via the procedure described in Example 2. Each cell line was subjected to three post-cryopreservation medium treatments. The first treatment was a control (i.e., DCR1 medium without ABA), the second treatment was DCR1 medium with 10 mg/l of ABA, and the third treatment was DCR1 medium with 30 mg/l of ABA. There were four plates (each derived from an individual cryogenic vial) per treatment and cell line.
(§2) The embryogenic cultures on membranes were transferred after 24 hours from the temporary recovery medium onto the post-cryopreservation medium and thereafter, every 14 days to a new plate of the same post-cryopreservation medium. The culture environment during post-cryopreservation recovery and growth was 23° C. in the dark. At 28 days after retrieval from cryogenic storage the final fresh weight of the proliferating embryogenic culture was measured. The data were analyzed using the SAS GLM ANOVA statistical software program (Release 6.12 commercially available from the SAS Institute, Inc.), and the results are shown in Table III below.

[2] = tested on: pitch×loblolly pine interspecies hybrid cell lines (AA-24, Q-01, Q-39); test: as above; assay type: cell-based
Excerpt: as §1, §2

CC1=CC(=O)CC(C)(C)[C@@]1(O)/C=C/C(C)=C\C(=O)O [ABA, abscisic acid]
% Increase of average culture fresh weight over control without ABA ([1]; 10 mg/l ABA): 35% | % Increase of average culture fresh weight over control without ABA ([1]; 30 mg/l ABA): 52%^a | Mean Culture Fresh Weight, average of cell lines ([1]; 10 mg/l ABA): 1.86 g | Mean Culture Fresh Weight, average of cell lines ([1]; 30 mg/l ABA): 2.10^a g | Mean Culture Fresh Weight ([1]; cell line E-117, 10 mg/l ABA): 0.38^a g | Mean Culture Fresh Weight ([1]; cell line E-117, 30 mg/l ABA): 0.33 g | Mean fresh weight higher than control treatment without ABA ([1]; cell line G-05, 10 mg/l ABA): 52% | Mean Culture Fresh Weight ([1]; cell line G-05, 10 mg/l ABA): 3.82^a g | Mean fresh weight higher than control treatment without ABA ([1]; cell line G-05, 30 mg/l ABA): 48% | Mean Culture Fresh Weight ([1]; cell line G-05, 30 mg/l ABA): 3.73 g | Mean Culture Fresh Weight ([1]; cell line K-12, 10 mg/l ABA): 0.55 g | Mean Culture Fresh Weight ([1]; cell line K-12, 30 mg/l ABA): 1.09^a g | Mean Culture Fresh Weight ([1]; cell line O-72, 10 mg/l ABA): 0.09 g | Mean Culture Fresh Weight ([1]; cell line O-72, 30 mg/l ABA): 0.10^a g | Mean Culture Fresh Weight ([2]; cell line AA-24, 10 mg/l ABA, 28 days after retrieval): 5.22 g | Mean Culture Fresh Weight ([2]; cell line AA-24, 30 mg/l ABA, 28 days after retrieval): 5.45^a g | Mean Culture Fresh Weight ([2]; cell line Q-01 (initiated and maintained with 10.0 mg/l ABA), 10 mg/l ABA, 28 days): 2.91^b g | Mean Culture Fresh Weight ([2]; cell line Q-01 (initiated and maintained with 10.0 mg/l ABA), 30 mg/l ABA, 28 days): 3.81^ab g | Mean Culture Fresh Weight ([2]; cell line Q-39 (initiated and maintained with 10.0 mg/l ABA), 10 mg/l ABA, 28 days): 0.01 g | Mean Culture Fresh Weight ([2]; cell line Q-39 (initiated and maintained with 10.0 mg/l ABA), 30 mg/l ABA, 28 days): 0.17 g
